{
  "source": "patent US12195451B2",
  "about": "(priority 2015, dated 2025)",
  "key": {"ICP0-null HSV-N212eGFP": {"test_system": "ICP0-null HSV-N212eGFP", "type": "cell-based, Herpes Simplex Virus type-1 (HSV-1)"}, "[1]": {"test_system": "Influenza H1N1 A/Puerto Rico/8/34 (PR8)", "type": "cell-based"}, "[2]": {"test_system": "adenovirus expressing firefly luciferase", "type": "cell-based, Adenovirus Serotype 5"}, "[3]": {"test_system": "adeno-associated virus expressing firefly luciferase", "type": "cell-based, AAV serotype 6"}, "MVA-eGFP": {"test_system": "MVA-eGFP", "type": "cell-based, modified vaccine ankara (MVA)", "settings": "human renal carcinoma (786-0) cells; infected after 4 hours, MOI 0.01; 48 h and 64 h after infection"}, "[4]": {"test_system": "adenovirus expressing firefly luciferase", "experiment": "Adenovirus transduction in normal mouse brain tissue cores", "type": "cell-based, Adenovirus Serotype 5", "settings": "10, 20 or 40 uM for 4 hours, 1×10^7 pfu/well, 36 hours post-infection"}, "[5]": {"test_system": "adenovirus expressing firefly luciferase", "experiment": "Adenovirus transduction in normal mouse muscle tissue cores", "type": "cell-based, Adenovirus Serotype 5", "settings": "10, 20 or 40 uM for 4 hours, 1×10^7 pfu/well, 36 hours post-infection"}, "[6]": {"test_system": "Salmonella typhimurium strains TA98 and TA100"}, "[7]": {"test_system": "adenovirus expressing firefly luciferase", "experiment": "Adenovirus transduction in A549 cancer cells (MOI 0.1, luciferase luminescence)", "type": "cell-based, Adenovirus Serotype 5", "settings": "pre-treated 2 hours at 21 uM to 120 or 160 uM, 40 hours post-infection"}, "A/FM1 (H1N1)": {"test_system": "A/FM1 (H1N1)", "set-up": "species or system Influenza A H1N1", "settings": "in vivo"}, "[8]": {"test_system": "VSV-Maraba-MG1-eGFP virus", "type": "cell-based, Maraba MG-1"}, "[9]": {"test_system": "IFN-responsive U251 human glioma cells", "settings": "cited from earlier work"}, "IFN-responsive promoter": {"test_system": "IFN-responsive promoter", "settings": "cited from earlier work"}, "[10]": {"test_system": "virus-induced cellular genes", "settings": "gene expression microarrays; cited from earlier work"}},
  "data": [
    {"molecule": "COc1ccccc1CN1C(=O)C(Cl)=C(Cl)C1O", "note": "(stereo not drawn) [CM01025, 3,4-Dichloro-5-hydroxy-1-(2-methoxy-benzyl)-1,5-dihydro-pyrrol-2-one]", "values": [
      {"measurement": "HSV-1 replication (eGFP fluorescence and HSV titers)", "setting": "ICP0-null HSV-N212eGFP", "value": "enhance Herpes Simplex Virus type-1 (HSV-1) replication"}
    ]},
    {"molecule": "CN1C(=O)C(Cl)=C(Cl)C1O", "note": "(stereo not drawn) [CM01031, 3,4-Dichloro-5-hydroxy-1-methyl-1,5-dihydro-pyrrol-2-one]", "values": [
      {"measurement": "PR8 titers, MDCK (NBL-2) cells", "setting": "[1]", "value": "Enhancement of PR8"},
      {"measurement": "PR8 titers, MDCK.2 cells", "setting": "[1]", "value": "Enhancement of PR8"}
    ]},
    {"molecule": "O=C1C(Cl)=C(Cl)C(O)N1Cc1ccccc1", "note": "(stereo not drawn) [MD01145, α,β-dichloro-γ-hydroxy-N-benzyl-crotonic lactam]", "values": [
      {"measurement": "HSV-1 replication (eGFP fluorescence and HSV titers)", "setting": "ICP0-null HSV-N212eGFP", "value": "enhance Herpes Simplex Virus type-1 (HSV-1) replication"},
      {"measurement": "adenovirus vector production (luciferase activity, fold increase vs untreated)", "setting": "[2]", "value": "enhance the production"},
      {"measurement": "adeno-associated virus vector production (luciferase activity, fold increase vs untreated)", "setting": "[3]", "value": "enhance the production"},
      {"measurement": "MVA vaccine strain infection of cells (eGFP fluorescence)", "setting": "MVA-eGFP", "value": "can be enhanced"},
      {"measurement": "Adenovirus transduction in normal brain tissue", "setting": "[4]", "value": "enhance Adenovirus transduction"},
      {"measurement": "Adenovirus transduction in normal muscle tissue", "setting": "[5]", "value": "enhance adenovirus transduction"},
      {"measurement": "dose-dependent increase in the number of revertants", "setting": "[6]", "value": "does not produce a dose-dependent increase"},
      {"measurement": "mutagenic potential", "setting": "[6]", "value": "not mutagenic"}
    ]},
    {"molecule": "C#CCN1C(=O)C(Cl)=C(Cl)C1O", "note": "(stereo not drawn) [MD01151, 3,4-Dichloro-5-hydroxy-1-prop-2-ynyl-1,5-dihydro-pyrrol-2-one]", "values": [
      {"measurement": "HSV-1 replication (eGFP fluorescence and HSV titers)", "setting": "ICP0-null HSV-N212eGFP", "value": "enhance Herpes Simplex Virus type-1 (HSV-1) replication"},
      {"measurement": "MVA vaccine strain infection of cells (eGFP fluorescence)", "setting": "MVA-eGFP", "value": "can be enhanced"},
      {"measurement": "Adenovirus transduction in cancer cells (fold increase luciferase luminescence vs adenovirus alone)", "setting": "[7]", "value": "enhance Adenovirus transduction"}
    ]},
    {"molecule": "O=c1[nH]ncc(Cl)c1Cl", "note": "[MD02026, 4,5-Dichloro-2H-pyridazin-3-one]", "values": [
      {"measurement": "adenovirus vector production (luciferase activity, fold increase vs untreated)", "setting": "[2]", "value": "enhance the production"},
      {"measurement": "adeno-associated virus vector production (luciferase activity, fold increase vs untreated)", "setting": "[3]", "value": "enhance the production"},
      {"measurement": "MVA vaccine strain infection of cells (eGFP fluorescence)", "setting": "MVA-eGFP", "value": "can be enhanced"},
      {"measurement": "Adenovirus transduction in normal brain tissue", "setting": "[4]", "value": "enhance Adenovirus transduction"},
      {"measurement": "Adenovirus transduction in normal muscle tissue", "setting": "[5]", "value": "enhance adenovirus transduction"}
    ]},
    {"molecule": "O=C1C(Cl)=C(Cl)C(O)N1CCc1ccccc1", "note": "(stereo not drawn) [MD03009, 3,4-dichloro-5-hydroxy-1-phenethyl-1H-pyrrol-2(5H)-one]", "values": [
      {"measurement": "MVA vaccine strain infection of cells (eGFP fluorescence)", "setting": "MVA-eGFP", "value": "can be enhanced"},
      {"measurement": "Adenovirus transduction in cancer cells (fold increase luciferase luminescence vs adenovirus alone)", "setting": "[7]", "value": "enhance Adenovirus transduction"}
    ]},
    {"molecule": "O=C1C(Cl)=C(Cl)C(O)N1CCN1CCOCC1", "note": "(stereo not drawn) [MD03011, 3,4-dichloro-5-hydroxy-1-(2-morpholinoethyl)-1H-pyrrol-2(5H)-one]", "values": [
      {"measurement": "MVA vaccine strain infection of cells (eGFP fluorescence)", "setting": "MVA-eGFP", "value": "can be enhanced"},
      {"measurement": "Adenovirus transduction in cancer cells (fold increase luciferase luminescence vs adenovirus alone)", "setting": "[7]", "value": "enhance Adenovirus transduction"},
      {"measurement": "Adenovirus transduction in normal brain tissue", "setting": "[4]", "value": "enhance Adenovirus transduction"},
      {"measurement": "Adenovirus transduction in normal muscle tissue", "setting": "[5]", "value": "enhance adenovirus transduction"},
      {"measurement": "A/FM1 (H1N1) production in ovo (plaque assay titer, HA titer by HPLC AUC)", "setting": "A/FM1 (H1N1)", "value": "enhances A/FM1 (H1N1) production"}
    ]},
    {"molecule": "COS(C)(=O)=O", "note": "[MMS, methyl methanesulfonate, reference compound]", "values": [
      {"measurement": "reversion rate (number of revertants)", "setting": "[6]", "value": "high number of revertants"}
    ]},
    {"molecule": "O=C1OC(c2ccccc2)C(Cl)=C1Cl", "note": "(stereo not drawn) [VSe1, 3,4-dichloro-5-phenyl-2,5-dihydrofuran-2-one, reference compound]", "values": [
      {"measurement": "replication / spread of oncolytic virus MG1 (eGFP expression)", "setting": "[8]", "value": "enhance the replication"},
      {"measurement": "HSV-1 replication (eGFP fluorescence and HSV titers)", "setting": "ICP0-null HSV-N212eGFP", "value": "enhance Herpes Simplex Virus type-1 (HSV-1) replication"},
      {"measurement": "adenovirus vector production (luciferase activity, fold increase vs untreated)", "setting": "[2]", "value": "enhance the production"},
      {"measurement": "adeno-associated virus vector production (luciferase activity, fold increase vs untreated)", "setting": "[3]", "value": "enhance the production"},
      {"measurement": "MVA vaccine strain infection of cells (eGFP fluorescence)", "setting": "MVA-eGFP", "value": "can be enhanced"},
      {"measurement": "Adenovirus transduction in cancer cells (fold increase luciferase luminescence vs adenovirus alone)", "setting": "[7]", "value": "enhance Adenovirus transduction"},
      {"measurement": "IFN-mediated protection of cells to VSVΔ51 infection", "setting": "[9]", "value": "suppress IFN-mediated protection"},
      {"measurement": "IFN-induced transcriptional activity", "setting": "IFN-responsive promoter", "value": "inhibit IFN-induced transcriptional activity"},
      {"measurement": "virus-induced cellular genes whose transcription is repressed", "setting": "[10]", "value": "> 95", "unit": "%"}
    ]}
  ]
}
